BindingDB's records for doi:10.1016/j.bmcl.2004.07.050 (University of Georgia, 2004)

Target: Integrase (HIV-1)
Assay: Inhibitory activity against strand transfer in wild-type HIV-1 integrase was determined using 21-mer oligonucleotide substrate

SMILES | IC50 [µM]
Nc1ncnc2c1ncn2C1CC(OP(=O)(O)OCC2OCC(n3cnc4c(N)ncnc43)C2O)C(COP(=O)(O)O)O1 (configuration not stated) [Phosphoric acid 4-(6-amino-purin-9-yl)-3-hydroxy-tetrahydro-furan-2-ylmethyl ester 5-(6-amino-purin-9-yl)-2-phosphonooxymethyl-tetrahydro-furan-3-yl ester] | 41
Nc1ccn(C2COC(COP(=O)(O)OC3CC(n4cnc5c(N)ncnc54)OC3COP(=O)(O)O)C2O)c(=O)n1 (configuration not stated) [[4-(4-amino-2-oxo-1,2-dihydropyrimidin-1-yl)-3-hydroxyoxolan-2-yl]methyl [5-(6-amino-9H-purin-9-yl)-2-[(phosphonatooxy)methyl]oxolan-3-yl] phosphate] | 65
